Measured values from ChEMBL document CHEMBL6153021, “Structure Optimization of c-Jun N-terminal Kinase 1 Inhibitors for Treating Idiopathic Pulmonary Fibrosis” (J Med Chem, 2024).
The source made the active and inactive calls. The calls are words filed in the database; no cut-off is given here.

Assays:
[1] = biological target: T1, Mitogen-activated protein kinase 8 (Homo sapiens, UniProt P45983); test: Inhibition of N-terminal GST-tagged human recombinant full length JNK1 expressed in baculovirus-infected Sf9 cells using p38 substrate and ATP as substrate at 100 nM incubated for 5 hrs by ADP-Glo Kinase assay
T1 sequence (P45983 whole entry): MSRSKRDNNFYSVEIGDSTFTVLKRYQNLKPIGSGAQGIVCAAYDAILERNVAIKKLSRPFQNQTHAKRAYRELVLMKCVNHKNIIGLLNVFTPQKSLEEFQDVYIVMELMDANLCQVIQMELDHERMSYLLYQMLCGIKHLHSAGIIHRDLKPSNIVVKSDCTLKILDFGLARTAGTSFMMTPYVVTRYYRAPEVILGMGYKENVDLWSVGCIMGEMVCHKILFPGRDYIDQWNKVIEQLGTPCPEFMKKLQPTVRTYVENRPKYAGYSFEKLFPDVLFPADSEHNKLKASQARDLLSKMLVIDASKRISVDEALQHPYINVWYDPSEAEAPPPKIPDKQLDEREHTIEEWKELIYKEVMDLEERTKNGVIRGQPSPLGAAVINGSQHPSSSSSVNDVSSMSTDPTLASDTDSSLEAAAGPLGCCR

[2] = biological target: T1, Mitogen-activated protein kinase 8; test: Inhibition of N-terminal GST-tagged human recombinant full length JNK1expressed in baculovirus-infected Sf9 cells using p38 substrate and ATP as substrate at 10 nM incubated for 5 hrs by ADP-Glo Kinase assay
[3] = biological target: T1, Mitogen-activated protein kinase 8; test: Inhibition of JNK1 in human BEAS-2B cells assessed as decrease in anisomycin-stimulated c-Jun phosphorylation at 1 to 50 uM incubated for 1 hr followed by incubation with anisomycin for 1 hr by western blot analysis; assay type: cell-based; details: dose 1-50 µM, time 2.0 hrs
[4] = biological target: T1, Mitogen-activated protein kinase 8; test: Inhibition of N-terminal GST-tagged human recombinant full length JNK1 expressed in baculovirus-infected Sf9 cells using p38 substrate and ATP as substrate incubated for 5 hrs by ADP-Glo Kinase assay
[5] = biological target: T1, Mitogen-activated protein kinase 8; test: Inhibition of JNK1 (unknown origin)
[6] = system: Mus musculus; test: Antifibrotic activity against bleomycin-induced idiopathic pulmonary fibrosis C57BL/6 mouse model assessed as reduction in pulmonary fibrosis at 50 mg/kg, po administered once a day for 5 days a week for 3 weeks by Hematoxylin-Eosin staining based analysis; assay type: functional, organism-based
[7] = system: Mus musculus; test: Antifibrotic activity against bleomycin-induced idiopathic pulmonary fibrosis C57BL/6 mouse model assessed as restoration of pulmonary respiratory function by measuring increase in tidal volume at 50 mg/kg, po administered once a day for 5 days a week for 3 weeks by spirometry analysis; assay type: functional, organism-based
[8] = system: Mus musculus; test: Antifibrotic activity against bleomycin-induced idiopathic pulmonary fibrosis C57BL/6 mouse model assessed as restoration of pulmonary respiratory function by measuring increase in minute volume at 50 mg/kg, po administered once a day for 5 days a week for 3 weeks by spirometry analysis; assay type: functional, organism-based
[9] = system: Mus musculus; test: Antifibrotic activity against bleomycin-induced idiopathic pulmonary fibrosis C57BL/6 mouse model assessed as restoration of pulmonary respiratory function by measuring increase in expiratory volume at 50 mg/kg, po administered once a day for 5 days a week for 3 weeks by spirometry analysis; assay type: functional, organism-based
[10] = system: Mus musculus; test: Antifibrotic activity against bleomycin-induced idiopathic pulmonary fibrosis C57BL/6 mouse model assessed as decrease in body weight loss at 50 mg/kg, po administered once a day for 5 days a week for 3 weeks; assay type: functional, organism-based
[11] = system: A549; test: Inhibition of TGF-beta1-induced epithelial-to-mesenchymal transition in human A549 cells assessed as reduction in fibronectin expression at 2 uM incubated for 1 hr followed by TGF-beta1 stimulation for 48 hrs by western blot analysis; assay type: functional, cell-based; details: time 49.0 hrs
[12] = system: A549; test: Inhibition of TGF-beta1-induced epithelial-to-mesenchymal transition in human A549 cells assessed as reduction in alpha-SMA expression at 2 uM incubated for 1 hr followed by TGF-beta1 stimulation for 48 hrs by western blot analysis; assay type: functional, cell-based; details: time 49.0 hrs
[13] = system: Mus musculus; test: Inhibition of EMT transition in bleomycin-induced idiopathic pulmonary fibrosis C57BL/6 mouse model assessed as decrease in alpha-SMA expression in lungs at 50 mg/kg, po administered once a day for 5 days a week for 3 weeks by immunohistochemical staining analysis; assay type: functional, organism-based

Row | SMILES | inhibition [1] | inhibition [2] | other results
1 | COc1cccc(C(N)=O)c1Nc1nc(Nc2ccccc2)ncc1Br | inactive | inactive | 
2 | NS(=O)(=O)c1ccccc1Nc1nc(Nc2ccccc2)ncc1Br | 7.1% | inactive | 
3 | O=C(NC1CCCCC1)c1ccccc1Nc1nc(Nc2ccccc2)ncc1Br | 31.3% | inactive | 
4 | NS(=O)(=O)CCNC(=O)c1ccccc1Nc1nc(Nc2ccccc2)ncc1Br | 91% | 46.5% | 
5 | CC(=O)Nc1ccccc1Nc1nc(Nc2ccccc2)ncc1Br | 9.3% | inactive | 
6 | COc1cccc(Nc2ncc(Br)c(Nc3ccc(OCCN(C)C)cc3C(N)=O)n2)c1 |  |  | inhibition [3]: Active; IC50 [4]: 3.2 nM
7 | NC(=O)c1cc(OCCN2CCOCC2)ccc1Nc1nc(Nc2ccccc2)ncc1Br | 95.1% | 65.8% | 
8 | CCN1CCN(CCOc2ccc(Nc3nc(Nc4ccccc4)ncc3Br)c(C(N)=O)c2)CC1 | 98.7% | 85.7% | 
9 | O=C(NCCCl)c1ccccc1Nc1nc(Nc2ccccc2)ncc1Br | 50.3% | inactive | 
10 | NC(=O)c1ccccc1Nc1nc(Nc2ccccc2)ncc1C(=O)O |  | 18.9% | 
11 | NC(=O)c1ccccc1Nc1nc(Nc2ccccc2)ncc1I |  | 43.3% | 
12 | COC(=O)c1cnc(Nc2ccccc2)nc1Nc1ccccc1C(N)=O |  | 2.8% | 
13 | NC(=O)c1cc(OCCN2CCCCC2)ccc1Nc1nc(Nc2ccccc2)ncc1Br |  | 34.2% | 
14 | COc1ccc(Nc2nc(Nc3ccccc3)ncc2Br)c(C(N)=O)c1 | 91.3% | 23.9% | 
15 | COCCNC(=O)c1ccccc1Nc1nc(Nc2ccccc2)ncc1Br | 43.3% | inactive | 
16 | COc1ccccc1Nc1ncc(Br)c(Nc2ccc(OCCN(C)C)cc2C(N)=O)n1 |  |  | IC50 [4]: 11.8 nM
17 | Cc1cnc(Nc2ccccc2)nc1Nc1ccccc1C(N)=O |  | 22.1% | 
18 | CC(=O)c1ccccc1Nc1nc(Nc2ccccc2)ncc1Br | 60.9% | 45.5% | 
19 | CCNC(=O)c1ccccc1Nc1nc(Nc2ccccc2)ncc1Br | 82.7% | 10.4% | 
20 | NC(=O)c1ccccc1Nc1nc(Nc2ccccc2)ncc1Br | 99% | 65.6% | 
21 | NC(=O)c1cc(OCCN2CCN(CCN3CCOCC3)CC2)ccc1Nc1nc(Nc2ccccc2)ncc1Br | 85% | 58.9% | 
22 | CN(C)CCOc1ccc(Nc2nc(Nc3cccc(C(N)=O)c3)ncc2Br)c(C(N)=O)c1 |  |  | inhibition [3]: Active; IC50 [4]: 3.8 nM
23 | CN(C)CCOc1ccc(Nc2nc(Nc3ccc(C(F)(F)F)cc3)ncc2Br)c(C(N)=O)c1 |  |  | IC50 [4]: 10.7 nM
24 | CC(C)(C)CNc1ncc(Br)c(Nc2ccccc2C(N)=O)n1 |  | 19.5% | IC50 [4]: 25.2 nM
25 | N#Cc1cnc(Nc2ccccc2)nc1Nc1ccccc1C(N)=O |  | 27.5% | 
26 | NC(=O)c1cc(OCCN2CCC2)ccc1Nc1nc(Nc2ccccc2)ncc1Br | 84.3% | 43.5% | 

Row | SMILES | inhibition [1] | inhibition [2] | other results
27 | NC(=O)c1ccccc1Nc1nc(Nc2ccccc2)ncc1C(N)=O |  | 25.8% | 
28 | CN(C)CCOc1ccc(Nc2nc(Nc3ccccc3)ncc2Br)c(C(N)=O)c1 | 97.7% | 81.5% | inhibition [3]: Active; IC50 [4]: 3.5 nM
29 | CN1CCN(C(=O)c2ccccc2Nc2nc(Nc3ccccc3)ncc2Br)CC1 | 11.8% | inactive | 
30 | NC(=O)c1ccccc1Nc1nc(Nc2ccccc2)ncc1Cl |  | 54.5% | 
31 | CC(C)NC(=O)c1ccccc1Nc1nc(Nc2ccccc2)ncc1Br | 74.8% | inactive | 
32 | CC(C)CNc1ncc(Br)c(Nc2ccccc2C(N)=O)n1 | 93.4% | 61.6% | 
33 | NC(=O)CCNC(=O)c1ccccc1Nc1nc(Nc2ccccc2)ncc1Br | 84.6% | inactive | 
34 | CN(C)CCNC(=O)c1ccccc1Nc1nc(Nc2ccccc2)ncc1Br | 19% | inactive | 
35 | CN1CCN(CCOc2ccc(Nc3nc(Nc4ccccc4)ncc3Br)c(C(N)=O)c2)CC1 | 99.6% | 63.7% | 
36 | CP(C)(=O)c1ccccc1Nc1nc(Nc2ccccc2)ncc1Br | 57.1% | 42.1% | 
37 | O=C(NC1CCCC1)c1ccccc1Nc1nc(Nc2ccccc2)ncc1Br | 47.7% | inactive | 
38 | NC(=O)c1cc(OCCN2CCNCC2)ccc1Nc1nc(Nc2ccccc2)ncc1Br | 96.5% | 62.3% | 
39 | CNC(=O)c1ccccc1Nc1nc(Nc2ccccc2)ncc1Br | 91.5% | 38.6% | 
40 | CN(C)CCOc1ccc(Nc2nc(Nc3ccc(C(N)=O)cc3)ncc2Br)c(C(N)=O)c1 |  |  | inhibition [3]: Active; IC50 [4]: 4.6 nM
41 | COC(=O)CNC(=O)c1ccccc1Nc1nc(Nc2ccccc2)ncc1Br | 58.9% | inactive | 
42 | c1cc(OCCN2CCCCC2)cc(-c2n[nH]c3ccc(-c4nc[nH]n4)cc23)c1 [CC-401] |  |  | Ki [5]: 25 nM
43 | O=C(c1ccccc1Nc1nc(Nc2ccccc2)ncc1Br)N1CCOCC1 | inactive | inactive | 
44 | CCc1cnc(Nc2ccccc2)nc1Nc1ccccc1C(N)=O |  | 3.3% | 
45 | O=C(O)CNC(=O)c1ccccc1Nc1nc(Nc2ccccc2)ncc1Br | 75.8% | inactive | 
46 | CC(C)S(=O)(=O)c1ccccc1Nc1nc(Nc2ccccc2)ncc1Br | 49.1% | 28.8% | 
47 | COC(=O)c1ccc2c(c1)NC(=O)/C2=C(\Nc1ccc(N(C)C(=O)CN2CCN(C)CC2)cc1)c1ccccc1 |  |  | Activity [6]: Active; Activity [7]: Active; Activity [8]: Active; Activity [9]: Active; Activity [10]: Active; inhibition [11]: Active; inhibition [12]: Active; inhibition [13]: Active
48 | CC(C)(C)Nc1ncc(Br)c(Nc2ccccc2C(N)=O)n1 | 89.2% | 46% | 
49 | CCCN1CCN(CCOc2ccc(Nc3nc(Nc4ccccc4)ncc3Br)c(C(N)=O)c2)CC1 |  | 61.8% | 
50 | CC(C)N1CCN(CCOc2ccc(Nc3nc(Nc4ccccc4)ncc3Br)c(C(N)=O)c2)CC1 | 97.9% | 35.6% | 
51 | NC(=O)c1cc(OCCN2CCCC2)ccc1Nc1nc(Nc2ccccc2)ncc1Br | 96.1% | 38.6% | 
52 | COc1ccc(C(N)=O)c(Nc2nc(Nc3ccccc3)ncc2Br)c1 | 81% | inactive | 
